Like-named read-outs stand apart in the source and are kept apart here.
Key:
[1] = Standard redox potential by cyclic voltammetry; type: physicochemical; conditions: reference electrode Ag/Ag^+, sweep rate 50 mV/s
Protocol: The standard redox potential is measured by cyclic voltammetry (CV) under a temperature condition of 25° C. At this time, the measurement is performed by a three-electrode method using a glassy carbon electrode (inner diameter: 3 mm) as a working electrode, a reference electrode (Ag/Ag^+), and a counter electrode (platinum wire), and the sweep rate of the potential is 50 mV/s. It is noted that the hydroxyamine forms of the compounds of the present invention are generally unstable and rapidly oxidized into nitroxyl radical forms. Thus, the value of the standard redox potential measured by the above method is the value between the nitroxyl radical form and the oxoammonium form.
In the cyclic voltammogram shown in FIG. 1, the cyclic voltammogram was stably maintained even after repeating 100 or more cycles of measurement, and thus it is observed that the compound of the present aspect has very high durability as an oxidizing agent.

[2] = molecular target: T1, S-RBD-His(WT) (SARS-CoV-2 Spike Protein (RBD)) (Severe acute respiratory syndrome coronavirus 2, UniProt P0DTC2)
[3] = test system: feline coronavirus (FCov (VR-989)); assay: Antiviral effect of AZADO (CPE method; incubation at 37° C.); type: cell-based
[4] = test system: feline coronavirus (FCov (VR-989)); type: cell-based; conditions: FCoV dilution series incubated with compound at room temperature for 2 hours; CRFK cells, 2 days culture
[5] = test system: feline coronavirus (FCov (VR-989)); type: cell-based; conditions: for Positive rate (CPE) / Number of wells when CPE is positive: 3 days culture
[6] = test system: feline coronavirus (FCov (VR-989)); assay: Cell viability by WST-8 method in the 25° C. incubation experiment; type: cell-based; conditions: cells cultured for 3 days after sample addition and medium replacement; virus alone about 50%
ovalbumin (OVA) = molecular target: T2, ovalbumin (OVA) (Gallus gallus, UniProt P01012); assay: Degradation activity on ovalbumin (electrophoresis, CBB staining); type: biochemical; conditions: room temperature for 24 hours
T2 sequence (P01012 1-386): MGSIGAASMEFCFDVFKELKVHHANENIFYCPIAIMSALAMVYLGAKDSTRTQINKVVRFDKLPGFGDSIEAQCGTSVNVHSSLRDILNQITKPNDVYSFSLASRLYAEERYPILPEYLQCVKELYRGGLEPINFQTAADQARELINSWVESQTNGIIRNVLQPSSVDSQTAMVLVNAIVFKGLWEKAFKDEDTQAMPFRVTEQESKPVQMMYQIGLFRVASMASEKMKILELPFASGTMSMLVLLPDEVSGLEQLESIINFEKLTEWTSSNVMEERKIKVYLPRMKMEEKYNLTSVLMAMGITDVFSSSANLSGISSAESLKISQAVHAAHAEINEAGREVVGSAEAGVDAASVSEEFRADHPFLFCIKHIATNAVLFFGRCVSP

[7] = test system: Escherichia coli (DH5a strain; AMP+); assay: Measurement of minimum inhibitory concentration (MIC) against Escherichia coli (colony count); type: cell-based; conditions: for CFU relative value: Comparative Example (0 mM) is 100
Protocol: First, Escherichia coli (DH5a strain; AMP+) was cultured with shaking in LB medium for 20 hours, and the obtained culture solution was used as an Escherichia coli stock solution. Then, the Escherichia coli stock solution was diluted 1000 times with PBS to obtain a diluted solution. In addition, this diluted solution was used as a comparative example.
On the other hand, AZADO^+NO3^− was added to the diluted solution obtained above to have a final concentration of 1 μM, 10 μM, 100 μM, 1 mM, or 10 mM, respectively, and the obtained mixture was allowed to stand at room temperature for 15 minutes. Thereafter, for the purpose of deactivating AZADO^+NO3^−, the diluted solution was further diluted 10 times using LB medium as a reaction stop solution. Finally, 25 μL of the reaction solution obtained in this manner was applied to LB agar medium, and cultured at 37° C. for 1 day. Then, the number of colonies on the agar medium after culture was counted, and the colony forming unit (CFU/mL) per mL was calculated. In addition, the “CFU relative value” described in Table 3 is a relative value when the value of the colony forming unit of Comparative Example is 100.

[8] = molecular target: T1, S-RBD-His(WT) (SARS-CoV-2 Spike Protein (RBD)); remark: listed apart in the source
[9] = test system: Escherichia coli ATCC 43895, serotype 0157:H7
[10] = test system: Penicillium citrinum (NBRC 6352)
[11] = test system: Staphylococcus aureus subsp. aureus NBRC 12732

## 1,3-dimethyl AZADO
[1]
  standard redox potential (E^0@25° C.) between the nitroxyl radical form and the oxoammonium form: 136 mV

## CC12CC3CC(CC(C3)N1[O])C2 [1-methyl AZADO]
[1]
  standard redox potential (E^0@25° C.) between the nitroxyl radical form and the oxoammonium form: 186 mV

## CC(=O)NC1CC(C)(C)[N+](=O)C(C)(C)C1.F[B-](F)(F)F [4-AcNH-TEMPO^+BF4^−]
[2]
  activity compared among the compounds (peak shift, MFI): almost equally strong
  antiviral activity (MFI) on extended treatment time: showed higher antiviral activity

## [O]N1C2CC3CC(C2)CC1C3 [AZADO, 2-azaadamantane-N-oxyl]
[1]
  standard redox potential (E^0@25° C.) between the nitroxyl radical form and the oxoammonium form: 236 mV

## O=[N+]([O-])[O-].O=[N+]1C2CC3CC(C2)CC1C3 [AZADO-Oxo]
[3]; AZADO-Oxo 2 mM added, 37° C. 2 hours (no AZADO-Oxo: 5.2)
  logTCID50: 2.4
[3]; AZADO-Oxo 2 mM added, 37° C. 2 hours (no AZADO-Oxo: 142262)
  TCID50: 253
[3]; AZADO-Oxo 2 mM, 37° C. 2 hours
  viral load reduced to (fraction): about 1/1000
[3]; AZADO-Oxo 2 mM, 37° C. 2 hours, 5.2-2.4
  Δ log TCID50: 2.8
[3]; AZADO-Oxo 2 mM, 37° C. 2 hours, viral load 10^−1
  Positive rate (CPE): 0%
[3]; AZADO-Oxo 2 mM, 37° C. 2 hours, viral load 10^−1, 8 wells
  Number of wells when CPE is positive: 0
[3]; AZADO-Oxo 2 mM, 37° C. 2 hours, viral load 10^−2
  Positive rate (CPE): 0%
[3]; AZADO-Oxo 2 mM, 37° C. 2 hours, viral load 10^−2, 8 wells
  Number of wells when CPE is positive: 0
[3]; AZADO-Oxo 2 mM, 37° C. 2 hours, viral load 10^−3
  Positive rate (CPE): 0%
[3]; AZADO-Oxo 2 mM, 37° C. 2 hours, viral load 10^−3, 8 wells
  Number of wells when CPE is positive: 0
[3]; AZADO-Oxo 2 mM, 37° C. 2 hours, viral load 10^−4
  Positive rate (CPE): 0%
[3]; AZADO-Oxo 2 mM, 37° C. 2 hours, viral load 10^−4, 8 wells
  Number of wells when CPE is positive: 0
[3]; AZADO-Oxo 2 mM, 37° C. 2 hours, viral load 10^−5
  Positive rate (CPE): 0%
[3]; AZADO-Oxo 2 mM, 37° C. 2 hours, viral load 10^−5, 7 wells
  Number of wells when CPE is positive: 0
[3]; AZADO-Oxo 2 mM, 37° C. 2 hours, viral load (relative value) 1
  Positive rate (CPE): 0%
[3]; AZADO-Oxo 2 mM, 37° C. 2 hours, viral load (relative value) 1, 7 wells
  Number of wells when CPE is positive: 0
[4]
  cell viability (WST-8 method): recovery of cell viability decreased by virus addition was observed
[5]; 48 hours after the addition of the sample solution, 25° C. incubation
  change of cell form to a round shape by virus (microscope): this form change is suppressed
[5]; AZADO-Oxo added, 25° C. incubation (no AZADO-Oxo: 5.2)
  logTCID50: 2.4
[5]; AZADO-Oxo added, 25° C. incubation (no AZADO-Oxo: 142262)
  TCID50: 253
[5]; AZADO-Oxo added, 25° C. incubation, viral load 10^−1
  Positive rate (CPE): 0%
[5]; AZADO-Oxo added, 25° C. incubation, viral load 10^−1, 8 wells
  Number of wells when CPE is positive: 0
[5]; AZADO-Oxo added, 25° C. incubation, viral load 10^−2
  Positive rate (CPE): 0%
[5]; AZADO-Oxo added, 25° C. incubation, viral load 10^−2, 8 wells
  Number of wells when CPE is positive: 0
[5]; AZADO-Oxo added, 25° C. incubation, viral load 10^−3
  Positive rate (CPE): 0%
[5]; AZADO-Oxo added, 25° C. incubation, viral load 10^−3, 8 wells
  Number of wells when CPE is positive: 0
[5]; AZADO-Oxo added, 25° C. incubation, viral load 10^−4
  Positive rate (CPE): 0%
[5]; AZADO-Oxo added, 25° C. incubation, viral load 10^−4, 8 wells
  Number of wells when CPE is positive: 0
[5]; AZADO-Oxo added, 25° C. incubation, viral load 10^−5
  Positive rate (CPE): 0%
[5]; AZADO-Oxo added, 25° C. incubation, viral load 10^−5, 7 wells
  Number of wells when CPE is positive: 0
[5]; AZADO-Oxo added, 25° C. incubation, viral load (relative value) 1
  Positive rate (CPE): 0%
[5]; AZADO-Oxo added, 25° C. incubation, viral load (relative value) 1, 7 wells
  Number of wells when CPE is positive: 0
[6]
  cell viability (WST-8 method): recovered the cell viability to the same level as the blank
Ovalbumin (OVA); 1 mg catalyst support or 3 μL of 100 mM AZADO-Oxo
  band of OVA in supernatant (CBB staining): almost eliminated
Ovalbumin (OVA); 2.5 μL of 100 mM AZADO-Oxo, with or without 2.5 μL of 100 mM cocatalyst
  band of OVA in supernatant (CBB staining), unsupported AZADO: elimination of a band of OVA (protein degradation activity) was confirmed
[7]; Escherichia coli, 15 minutes contact
  final concentration at which a remarkable inactivation effect was observed: ≥ 100 PM
[7]; final concentration 0.001 mM (0 mM: 1.21 × 10^8)
  colony forming unit: 1.28 × 10^8 CFU/mL
[7]; final concentration 0.001 mM
  CFU relative value: 105
[7]; final concentration 0.001 mM, room temperature 15 minutes (0 mM: 303)
  Number of colonies: 319
[7]; final concentration 0.01 mM
  colony forming unit: 1.25 × 10^8 CFU/mL
  CFU relative value: 103
[7]; final concentration 0.01 mM, room temperature 15 minutes
  Number of colonies: 313
[7]; final concentration 0.1 mM
  colony forming unit: 6.04 × 10^7 CFU/mL
  CFU relative value: 50
[7]; final concentration 0.1 mM, room temperature 15 minutes
  Number of colonies: 151
[7]; final concentration 1 mM
  colony forming unit: 0 CFU/mL
  CFU relative value: 0
[7]; final concentration 1 mM or more
  sterilization effect: ≥ 99%
[7]; final concentration 1 mM, room temperature 15 minutes
  Number of colonies: 0
[7]; final concentration 10 mM
  colony forming unit: 0 CFU/mL
  CFU relative value: 0
[7]; final concentration 10 mM, room temperature 15 minutes
  Number of colonies: 0
[8]
  shift of fluorescence peak (binding amount between spike protein and ACE2): shifted to the left depending on the amount of AZADO-Oxo added

## F[B-](F)(F)F.O=[N+]1C2CC3CC(C2)CC1C3 [AZADO^+BF4^−]
[2]
  activity compared among the compounds (peak shift, MFI): almost equally strong
  antiviral activity (MFI) on extended treatment time: showed higher antiviral activity

## CC1(C)CCCC(C)(C)N1[O] [TEMPO, 2,2,6,6-tetramethylpiperidine-N-oxyl]
[1]
  standard redox potential (E^0@25° C.) between the nitroxyl radical form and the oxoammonium form: 294 mV

## O=[N+]([O-])[O-].[Ag+] [silver nitrate, reference compound]
[4]
  cell viability (WST-8 method): such a phenomenon was not observed

## copper(II) nitrate
[9]
  viable cell ratio: did not decrease to 0%
[10]
  viable cell ratio: started to increase after 5 minutes from the addition
[11]
  viable cell ratio: did not decrease after 5 minutes from the addition

Source: US20260083122A1, “METHOD AND AGENT FOR INACTIVATING BACTERIA OR VIRUSES, AND ANTIVIRAL BASE MATERIAL USING SAME” (NISSAN MOTOR CO., LTD., priority 2022, published 2026)
